{
  "source": "patent US7598384B2",
  "about": "“Tetrahydroquinolinones and their use as antagonists of metabotropic glutamate receptors” (Merz Pharma GmbH & Co. KGAA, priority 2004, dated 2009)",
  "note": "Counter-ions that a name gives are not always drawn.",
  "data": [
    {"units": {"melting point": "°C"}, "values": [
      {"smiles": "CC(C)COc1ccc2c(n1)CC(C)(C)CC2=O.Cl", "melting point": "157 to 158"},
      {"smiles": "CC1(C)CC(=O)c2ccc(OCc3ccccc3)nc2C1.Cl", "melting point": "87 to 88"},
      {"smiles": "CC1(C)CC(=O)c2ccc(NCc3ccccc3)nc2C1.Cl", "melting point": "215 to 216"},
      {"smiles": "CC1(C)CC(=O)c2ccc(CCc3ccccc3)nc2C1.Cl", "melting point": "173 to 175"},
      {"smiles": "CC1(C)CC(=O)c2ccc(Cc3ccccc3)nc2C1.Cl", "melting point": "202 to 204"},
      {"smiles": "Cl.O=C1CCCc2nc(Cc3ccccc3)ccc21", "melting point": "185 to 187"},
      {"smiles": "COc1ccccc1CCc1ccc2c(n1)CCCC2=O.Cl", "melting point": "160 to 162"},
      {"smiles": "Cl.O=C1CCCc2nc(C34CC5CC(CC(C5)C3)C4)ccc21", "melting point": "214 to 216"},
      {"smiles": "CC1(C)CC(=O)c2ccc(C34CC5CC(CC(C5)C3)C4)nc2C1.Cl", "melting point": "210 to 212"},
      {"smiles": "CC1(C)CC(=O)c2cc(C#N)c(NCc3ccccc3)nc2C1.Cl", "melting point": "163 to 164"},
      {"smiles": "CC1(C)CC(=O)c2ccc(OC3CCCCC3)nc2C1.Cl", "melting point": "126 to 127"},
      {"smiles": "O=C1CC2(CCCCC2)Cc2nc(OCc3ccccc3)ccc21", "note": "(as salt: hydrochloride) [Example 25, 2-Benzyloxy-7,7-pentamethylene-7,8-dihydro-6H-quinoline-5-one hydrochloride]", "melting point": "276 to 277"},
      {"smiles": "O=C1CC2(CCCCC2)Cc2nc(C34CC5CC(CC(C5)C3)C4)ccc21", "note": "(as salt: hydrochloride) [Example 27, 2-Adamantan-1-yl-7,7-pentamethylene-7,8-dihydro-6H-quinoline-5-one hydrochloride]", "melting point": "221 to 222"},
      {"smiles": "CCCCCCc1ccc2c(n1)CC(c1ccc(N(C)C)cc1)CC2=O", "note": "(stereo not drawn) (as salt: hydrochloride) [Example 32, 7-(4-Dimethylamino-phenyl)-2-hexyl-7,8-dihydro-6H-quinolin-5-one dihydrochloride]", "melting point": "195 to 196"},
      {"smiles": "CC1(C)CCc2nc(C34CC5CC(CC(C5)C3)C4)ccc2C1=O", "note": "(as salt: hydrochloride) [Example 41, 2-Adamantan-1-yl-6,6-dimethyl-7,8-dihydro-6H-quinolin-5-one hydrochloride]", "melting point": "203 to 204"},
      {"smiles": "CCCCCCc1ccc2c(n1)C(C)CC(C)(C)C2=O", "note": "(stereo not drawn) (as salt: hydrochloride) [Example 55, 2-Hexyl-6,6,8-trimethyl-7,8-dihydro-6H-quinolin-5-one hydrochloride]", "melting point": "199 to 200"},
      {"smiles": "COc1cccc(-c2ccc3c(n2)CC2(CCCC2)CC3=O)c1", "note": "(as salt: hydrochloride) [Example 59, 2-(3-Methoxy-phenyl)-7,7-tetramethylene-7,8-dihydro-6H-quinolin-5-one hydrochloride]", "melting point": "233 to 234"},
      {"smiles": "CCCC1CCc2nc(-c3ccc(OC)cc3)ccc2C1=O", "note": "(stereo not drawn) (as salt: hydrochloride) [Example 60, 2-(4-Methoxy-phenyl)-6-propyl-7,8-dihydro-6H-quinolin-5-one hydrochloride]", "melting point": "212 to 213"},
      {"smiles": "CCC1CC(=O)c2ccc(-c3ccc(OC)cc3)nc2C1", "note": "(stereo not drawn) (as salt: hydrochloride) [Example 70, 7-Ethyl-2-(4-methoxy-phenyl)-7,8-dihydro-6H-quinolin-5-one hydrochloride]", "melting point": "232 to 233"},
      {"smiles": "CCCCSc1nc2c(cc1C#N)C(=O)CC(C)(C)C2", "note": "[Example 1, 2-Butylsulfanyl-7,7-dimethyl-5-oxo-5,6,7,8-tetrahydroquinoline-3-carbonitrile]", "melting point": "50 to 52"},
      {"smiles": "CCCSc1nc2c(cc1C#N)C(=O)CC(C)(C)C2", "note": "[Example 2, 7,7-Dimethyl-5-oxo-2-propylsulfanyl-5,6,7,8-tetrahydroquinoline-3-carbonitrile]", "melting point": "100 to 102"},
      {"smiles": "CC(C)Sc1nc2c(cc1C#N)C(=O)CC(C)(C)C2", "note": "[Example 3, 2-Isopropylsulfanyl-7,7-dimethyl-5-oxo-5,6,7,8-tetrahydroquinoline-3-carbonitrile]", "melting point": "135 to 136"},
      {"smiles": "C=C(C)CSc1nc2c(cc1C#N)C(=O)CC(C)(C)C2", "note": "[Example 4, 7,7-Dimethyl-2-(2-methylallysulfanyl)-5-oxo-5,6,7,8-tetrahydroquinoline-3-carbonitrile]", "melting point": "78 to 79"},
      {"smiles": "CC(C)CSc1nc2c(cc1C#N)C(=O)CC(C)(C)C2", "note": "[Example 5, 2-Isobutylsulfanyl-7,7-dimethyl-5-oxo-5,6,7,8-tetrahydroquinoline-3-carbonitrile]", "melting point": "75 to 76"},
      {"smiles": "C=C(C)CSc1nc2c(cc1C#N)C(=O)CCC2", "note": "[Example 6, 2-(2-Methylallylsulfanyl)-5-oxo-5,6,7,8-tetrahydroquinoline-3-carbonitrile]", "melting point": "85 to 86"},
      {"smiles": "CC1(C)CC(=O)c2cc(C#N)c(N3CCCCC3)nc2C1", "note": "[Example 7, 7,7-Dimethyl-5-oxo-2-piperidin-1-yl-5,6,7,8-tetrahydro-quinoline-3-carbonitrile]", "melting point": "99 to 100"},
      {"smiles": "COc1ccc(Nc2ccc3c(n2)CC(C)(C)CC3=O)cc1", "note": "[Example 86, 2-(4-Methoxy-phenylamino)-7,7-dimethyl-7,8-dihydro-6H-quinolin-5-one]", "melting point": "149 to 150"},
      {"smiles": "O=C1c2ccc(Nc3ccccc3)nc2CC2CCCCC12", "note": "(stereo not drawn) [Example 111, 2-Phenylamino-6,7,8,9,9a,10-hexahydro-5aH-benzo[g]quinolin-5-one]", "melting point": "214 to 216"},
      {"smiles": "CC(Nc1ccc2c(n1)CC1CCCCC1C2=O)c1ccccc1", "note": "(stereo not drawn) [Example 112, 2-(1-Phenyl-ethylamino)-6,7,8,9,9a,10-hexahydro-5aH-benzo[g]quinolin-5-one]", "melting point": "156 to 158"},
      {"smiles": "O=C1c2ccc(N3CCN(c4ccccc4)CC3)nc2CC2CCCCC12", "note": "(stereo not drawn) [Example 114, 2-(4-Phenyl-piperazin-1-yl)-6,7,8,9,9a,10-hexahydro-5aH-benzo[g]quinolin-5-one]", "melting point": "164 to 166"}
    ]}
  ]
}
